# Values quoted from earlier work as cited in patent US20060275504A1, “Methods and compositions for augmenting cancer chemotherapeutic agents” (TTY BIOPHARM COMPANY LIMITED, priority 2005, published 2006).
compound,measurement,setting,value
"S1[As]2S[As]3S[As]2S[As]13 [As4S4, tetraarsenic tetraslfide]",complete remission rates,arsenic-containing substances other than arsenic trioxide (Wang Z. Y. 2001),84.9%
O=C1O[C@H]([C@@H](O)CO)C(O)=C1O [Ascorbic acid],concentration exhibiting cytotoxic activity,"MCF-7; MCF-7, ascorbic acid alone",10^2-10^3 μM
same,"effect on cytotoxicity of DOX, DDP and TX","MCF-7; MCF-7, ascorbic acid at non-cytotoxic (1 μM) and moderately cytotoxic (10^2 μM) concentration","improved the cytotoxicity of DOX, DDP and TX significantly"
same,concentration exhibiting cytotoxic activity,"MDA-MB-231; MDA-MB-231, ascorbic acid alone",10^2-10^3 μM
same,"effect on cytotoxicity of DOX, DDP and TX","MDA-MB-231; MDA-MB-231, ascorbic acid at non-cytotoxic (1 μM) and moderately cytotoxic (10^2 μM) concentration","improved the cytotoxicity of DOX, DDP and TX significantly"
arsenic trioxide,complete remission (CR) rate,"intravenously 10 mg/d, patients with relapsed acute promyelocytic leukemia",90%
